Here are results for 26 compounds from US6015877A, “Compounds for inhibition of proteolysis” (President and Fellows of Harvard College, priority 1996, dated 2000).

As a reminder, the Km is the substrate concentration at which the rate is half of its maximum. By Vmax is commonly meant the top rate of the reaction or transport when substrate is in excess.

The target in test [1] is T1, cysteine protease apopain (Homo sapiens, UniProt P42574).
T1 sequence (P42574 29-175 limits assumed): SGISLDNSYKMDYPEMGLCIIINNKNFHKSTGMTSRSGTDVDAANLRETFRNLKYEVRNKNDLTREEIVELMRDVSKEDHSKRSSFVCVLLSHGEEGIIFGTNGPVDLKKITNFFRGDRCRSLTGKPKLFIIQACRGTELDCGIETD
T1 sequence (P42574 176-277 limits assumed): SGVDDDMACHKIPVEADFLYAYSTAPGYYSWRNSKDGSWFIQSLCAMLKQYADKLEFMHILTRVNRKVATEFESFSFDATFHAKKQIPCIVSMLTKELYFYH
The note with it: cited from earlier work.

Test [2] concerns isoprenylated protein endoprotease. The test can be described thus: Inhibition of the solubilized / partially purified enzyme by non-halomethyl ketone inhibitors. The format is biochemical, bovine. The note with it: for enzyme activity (%) detergent extract / enzyme activity (%) partially purified: control 100.
In test [3] the test system is protease of bovine liver microsomal membranes (isoprenylated protein endoprotease). The test can be described thus: Proteolysis of N-[3H]acetyl isoprenylated peptide substrates by calf liver microsomal membranes (N-[3H]-AFC formation, HPLC). The conditions noted are these: for activity as substrate (Table 1, words): 10 mM, prolonged incubation time (16 hours), detection limit 1.13 pmol/min/mg. In general terms: Liver microsomes are a subcellular fraction often used to study metabolism.

Test [4] relates to isoprenylated protein endoprotease. Kind of test: Inhibition of the isoprenylated protein endoprotease by halomethyl ketones (preincubation, 20-fold dilution, Kitz-Wilson). The format is biochemical, bovine. The conditions noted are these: for enzyme activity (%): diluted 20-fold, control 100; for inhibition / inactivation of the endoprotease (in words): solubilized endoprotease. As for the experimental part: A typical procedure of inhibition is given here to illustrate the details of this procedure. A CHAPSO-solubilized protein preparation (2.5 mg/mL) or a partially […] protein preparation (0.17 mg/mL) was incubated with chloromethyl ketone inhibitors at 37° C. for 30 minutes. Aliquots were removed at timed intervals and diluted with assay buffer E for the solubilized preparation of with assay buffer D for the partially purified protein preparation in 20-fold. The final protein and substrate concentrations were 0.12 mg/mL (or 8.5 μg of partially purified protein preparation per milliliter) and 2.0 μM, respectively, except as otherwise noted; the residual enzyme activity was assayed as described above. TPCK and BFC-CMK were characterized by kinetic measurements. The bimolecular rate constant Kinh /K1 and pseudo-first-order kinetic rate constant Kinh were obtained using the Kitz-Wilson method (Kitz & Wilson, 1962). According to Kitz-Wilson method, the irreversible modification of an enzyme by an active-site directed inhibitor is given by [drawing 9] where K1 =[E]·[I]/[E·I] and -d([E]+[E·I])/dt=Kinh [E·I]. [I] and [E] are inhibitor and enzyme concentrations at a certain time, respectively. Under conditions here [I]>>[Eo ], which is the enzyme concentration at time zero, [I] is constant. Under conditions where the enzyme-inhibitor solution is extensively diluted before the assay, a simplified equation 2 can be obtained as follows: […]
To further establish the specificity of the inactivation process, several commercially available haloketones were studies as putative inactivators of the endoprotease. The structures of these analogs are shown and their activities are shown in Table V. In these studies, the solubilized protein material was preincubated with a chloromethyl ketone inhibitor at 284 μM (unless otherwise noted) for 30 minutes; then 2.5-μL aliquots of the incubated solution were taken and diluted 20-fold for assay of the residual enzyme activity. […] Save for the dipeptide derivatives (ZGGFCMK and ZAPFCMK) derived from TPCK, the other halomethyl ketones tested are virtually inert.
FIG. 16(A) Time-dependent inhibition. 16B Kitz-Wilson plot (the upper panel) for the inhibition of the isoprenylated protein endoprotease by TPCK. The inhibition studies were carried out at 37° C. using the solubilized endoprotease preparation. Aliquote of the inhibitor-enzyme solution were taken at interval times and diluted by a factor of 20, and the enzyme activity was assayed as described in Methods. (B) (the lower panel) the concentration-dependent inhibition of the endoprotease by TPCK. The inhibition studies were carried out at 37° C. The crude CHAPSO-solubilized endoprotease preparations (0.12 mg/mL) were preincubated for 60 min in 50 μL of buffer E in the presence of 284 μM TPCK or TLCK with 6% DMSO and 2% 2-propanol. After the incubation, the reaction solution was diluted by a factor of 20, and the remaining enzyme activity of the inhibitor-enzyme solution was assayed as described in Methods. Data were represented in mean from duplicate runs.

Test [5] concerns membrane-bound isoprenylated protein endoprotease. The conditions noted are these: cited from earlier work.
Where [6] appears, read: calf liver microsomal membranes.
[7] abbreviates: 284 μM inhibitor, solubilized protein preincubated 30 minutes.
[8] abbreviates: Kitz-Wilson plot using the partially purified enzyme preparation.
[9] abbreviates: Table 1, same enzyme preparation, average of two determinations ±S.D.

Values joined by “and” are separate entries in the source; they are usually repeats but may differ in a detail not shown here. Equal entries are not always repeated. “Also recorded” adds a separate entry of the source. Where two headings read alike, the source gives them in different places. Where no end group is shown, it is not given here. [ ]: non-standard residue; d: D form. The star is where a group is joined. Farnesyl = CC(C)=CCC/C(C)=C/CC/C(C)=C/C*

On to `CCN1C(=O)C=CC1=O` [N-ethylma-leimide], for which the “inhibition of apopain (in words)” value in test [1] was “inhibited”.

For `O=S(=O)(F)Cc1ccccc1` [PMSF, phenylmethanesulfonyl fluoride], in test [2] (1 mM), the “inhibition of the endoprotease (in words)” value is “not inhibited”. Further, the “enzyme activity (%) detergent extract” value in test [2] (inhibitor 1 mM) stood at 93 ± 3%.

Consider “N-acetyl-S-trans-geranyl-D-Cys-L-Val-Ile [AGC--Val--Ile (3) D--L--L]”, for which, in test [3], the “activity as substrate (Table 1, words)” value is “inactive”. Besides, in test [3] (setting [6]), the “substrate activity (in words)” value was “no measurable protease activity”.

For `CC(=O)N[C@@H](CSC/C=C(\C)CC/C=C(\C)CCC=C(C)C)C(N)=O` [AFC amide], the “substrate activity (in words)” value in test [3] (setting [6]) is given as “not a substrate for the enzyme”.

On to `CC(C)C[C@H](NC(=O)[C@@H](NC(=O)N[C@@H](Cc1ccccc1)C(=O)O)[C@@H]1CCN=C(N)N1)C(=O)N[C@H](C=O)Cc1ccccc1` [Chymostatin], for which, in test [2] (0.33 mM), the “inhibition of the endoprotease (in words)” value is recorded as “not inhibited”. For the same compound, in test [2] (inhibitor 0.33 mM), the “enzyme activity (%) detergent extract” value is given as 104 ± 8% and the “enzyme activity (%) partially purified” value is 99 ± 1%. For the same compound, in test [2] (inhibitor 0.33 mM, listed as chymostatin), the “enzyme activity (%) partially purified” value is on record as “not inhibited”.

Consider “β-(2-naphthyl)-L-alanine chloromethyl ketone [2-Nal-Ala-CMK]”, for which, in test [4] (setting [7]), the “enzyme activity (%)” value stood at 53 ± 1%. Besides, the “inhibition / inactivation of the endoprotease (in words)” value (“inhibition / inactivation” for short) in test [4] is given as “inhibit the endoprotease well”.

“N-[^3 H]-acetyl-S-all-trans-farnesyl-L-Cys-L-Val-L-Ile-D-Met ({(3H)‑acetyl}-C(Farnesyl)VI[dM]) [AFC--Val--Ile--Met (10)]”: in test [3], the “activity as substrate (Table 1, words)” value was “weakly active (detectable activity is observed under prolonged incubation periods, but the activity is <5% that observed with AFC-V-I-S)”. Also, in test [3] (setting [6]), the “substrate activity (in words)” value was “processed to some extent”.

`CC(C)=CCC/C(C)=C/CC/C(C)=C/CSC[C@H](NC(=O)OC(C)(C)C)C(=O)CCl` (stereo in doubt) [BFCCMK, N-Boc-S-all-trans-Farnesyl-L-cysteine Chloromethyl Ketone]: the “enzyme activity (%)” value in test [4] (setting [7]) turned out to be 27 ± 2%. Also, in test [4] (setting [8]), the “Kinh (s^-1)” value is “(5.9 ± 0.4) × 10^-3 s^-1”; the “Kinh /K1” value is 19.4 M⁻¹ s⁻¹ and 19.4 ± 1 M⁻¹ s⁻¹. Moreover, the Ki in test [4] (Kitz-Wilson plot using the partially purified enzyme preparation, read-out: K1) was 30 µM and ~30 µM. In addition, in test [4] (compared with TPCK), the “increase of the second-order rate constant” value is on record as 15 fold. Besides, the “inhibition / inactivation” value in test [4] is on record as “good inhibitors; also recorded: quite a potent inactivator of the endoprotease; also recorded: most potent inactivator of the endoprotease; also recorded: much more potent inactivator of the endoprotease than TPCK”.

With “N-acetyl-S-all-trans-farnesyl-D-Cys-D-Val-L-Ile [D-D-L]”, the “substrate activity (in words)” value in test [3] (setting [6]) was “inactive”.

Regarding bis(p-nitro-phenyl)phosphate [BNPP], the “inhibition of the endoprotease (in words)” value in test [2] (1 mM) is “not inhibited”. Moreover, the “enzyme activity (%) detergent extract” value in test [2] (inhibitor 1 mM) came to 100 ± 8%.

For the compound “N-Benzyloxycarbonylglycylglycyl-S-all-trans-farnesyl-L-cysteine Chloromethyl Ketone [ZGGFCCMK]”, the “enzyme activity (%)” value in test [4] (setting [7]) was determined as 44 ± 1%. Moreover, in test [4], the “inhibition / inactivation” value was “good inhibitors”.

In the case of “N-[^3 H]-Acetyl-L-Cys-L-Val-L-Ile [Cys--Val--Ile (4)]”, the “activity as substrate (Table 1, words)” value in test [3] is “inactive”. For the same compound, the “substrate activity (in words)” value in test [3] (setting [6]) is recorded as “Neither analog was measurably processed”.

Regarding `N=C(N)c1ccc(CS(=O)(=O)F)cc1` [APMSF, 4-(amidinophe-nyl)methanesulfonyl fluoride], the “inhibition of the endoprotease (in words)” value in test [5] is on record as “not inhibited”.

With “N-[^3 H]-Acetyl-S-all-trans-geranylgeranyl-D-cys-L-Val-L-Ile [AGGC--Val--Ile (2) D--L--L]”, the “activity as substrate (Table 1, words)” value in test [3] is “inactive”. The “substrate activity (in words)” value in test [3] (setting [6]) was “no measurable protease activity”.

`O[C@H](CS)[C@H](O)CS` (racemic) [DTT, Dithiothreitol]: the “effect on the solubilized enzyme's activity (in words)” value in test [2] (1-5 mM) is “Neither DTT (1-5 mM) nor glycerol (20%) affects the enzyme's activity”. In addition, the “enzyme activity (%) detergent extract” value in test [2] (inhibitor 5 mM) was 108 ± 8%.

For the compound “N-[^3 H-Acetyl-S-all-trans-geranylgeranyl-L-Cys-L-Val-L-ile [AGGC--Val--Ile (2)]”, in test [3] (setting [9]), the Km worked out at 4.01 ± 0.4 µM and the “Vmax” value turned out to be 26.20 ± 0.97 pmol/min/mg. In addition, in test [3] (setting [6]), the Km was 14.6 µM, the Vmax is on record as 19.35 pmol/min/mg and the “substrate activity (in words)” value is on record as “good substrates”.

`CC(C)=CCC/C(C)=C/CC/C(C)=C/CSC[C@@H](C=O)NC(=O)OC(C)(C)C` (stereo in doubt) [N-Boc-S-all-trans-farnesyl-L-cysteine Aldehyde]: the “inhibition of the enzyme (in words)” value in test [5] (Ma et al., 1993) was “fairly potent competitive inhibitor”.

Take “Nα-tosyl-L-lysine chloromethyl ketone [TLCK]”: in test [4] (1000 μM inhibitor, solubilized protein preincubated), the “enzyme activity (%)” value turned out to be 94 ± 15%. For the same compound, the “inhibition / inactivation” value in test [4] is on record as “did not inhibit the enzyme activity; also recorded: does not inhibit the enzyme activity”. Moreover, in test [1], the “inhibition of apopain (in words)” value is listed as “not”.

For the compound `CC(=O)N[C@@H](CC(C)C)C(=O)N[C@@H](CC(C)C)C(=O)N[C@H](C=O)CCCNC(=N)N` [leupeptin], the “inhibition of the endoprotease (in words)” value in test [5] (1.0 μM) was “not inhibited”.

On to aprotinin, for which the “inhibition of the endoprotease (in words)” value in test [5] (0.6 μM) was “not inhibited”.

As for “N-Ac-S-all-trans-farnesyl-D-Cys-L-Val-L-Ile [AFC--Val--Ile (6)]”, in test [3], the “activity as substrate (Table 1, words)” value is “inactive”.

As for “N-acetyl-S-trans-geranyl-L-Cys-L-Val-L-Ile [AGC--Val--Ile (3)]”, in test [3] (setting [9]), the Km was 14.6 ± 2.14 µM and the “Vmax” value is recorded as 19.35 ± 1.12 pmol/min/mg. For the same compound, in test [3] (setting [6]), the “substrate activity (in words)” value is “good substrates”.

As for “N-[^3 H]-Acetyl-S-thio-t-butyl-L-Cys-L-Val-L-Ile [t-butylthio-Cys--Val--Ile (5)]”, the “activity as substrate (Table 1, words)” value in test [3] was “inactive”. Besides, the “substrate activity (in words)” value in test [3] (setting [6]) is “Neither analog was measurably processed”.

For “N-acetyl-S-all-trans-farnesyl-L-Cys-D-Val-L-Ile [AFC--Val--Ile (7)]”, the “activity as substrate (Table 1, words)” value in test [3] is “inactive”. Further, the “substrate activity (in words)” value in test [3] (setting [6]) is on record as “did not have substrate activity”.

Regarding `OCC(O)CO` [glycerol], the “effect on the solubilized enzyme's activity (in words)” value in test [2] (20%) is “Neither DTT (1-5 mM) nor glycerol (20%) affects the enzyme's activity”.

Consider “N-[^3 H]-acetyl-S-all-trans-farnesyl-L-Cys-L-Val-D-Ile [AFC--Val--Ile (8)]”, for which the “activity as substrate (Table 1, words)” value in test [3] is “inactive”. The “substrate activity (in words)” value in test [3] (setting [6]) is listed as “did not have substrate activity”.
